Test results published in patent US5455356A, “Fungicidal 1-aryl-1-[α-(triazolyl)alkyl]-1-silacycloalkanes and their preparation methods” (priority 1993, dated 1995).

Key:
Type in all cases: cell-based
[1] = tested on: Phytophthora capsisi; test: In vitro mycelial/spore growth on potato-sucrose-agar, percent disease control (PC); settings: read-out: % controlled, PC
Protocol: (§1) The compounds of this invention were dissolved respectively in acetone in an amount equal to 10% of the final volume and then in purified water at the concentration of 100 ppm and 50 ppm.
(§2) Each of the solution was mixed with potato-sucrose-agar medium in 6" petri dish and one of the fungi was spotted at the center of the dish. The dish was incubated in growth room for several days. The percent disease control was derived from the radii of spore growth. The screening tests in vitro condition are well-known to those skilled in the art.
(§3) The following fungi were used for the screening.
2) Phy. ca.; Phytophthora capsisi

[2] = tested on: Botryosphaeri; test: In vitro mycelial/spore growth on potato-sucrose-agar, percent disease control (BD); settings: read-out: % controlled, BD
Protocol: as §1, §2, §3
4) Bo. do (Ma); Botryosphaeri

[3] = tested on: GC; test: In vitro mycelial/spore growth on potato-sucrose-agar, percent disease control (GC); settings: read-out: % controlled, GC; for inhibition of growth at 50 ppm: GC
Protocol: as §1, §2, §3

[4] = tested on: Pyricalaria oryzae; test: In vitro mycelial/spore growth on potato-sucrose-agar, percent disease control (PO); settings: read-out: % controlled, PO
Protocol: as §1, §2, §3
6) Py. or.; Pyricalaria oryzae

[5] = tested on: Rhizoctonia solani; test: In vitro mycelial/spore growth on potato-sucrose-agar, percent disease control (RS, first column); settings: read-out: % controlled, RS
Protocol: as §1, §2, §3
7) Rhi. so.; Rhizoctonia solani

[6] = tested on: Fusarium moniliforme; test: In vitro mycelial/spore growth on potato-sucrose-agar, percent disease control (FM); settings: Fusarium verticillioides, Fusarium moniliforme, read-out: % controlled, FM
Protocol: as §1, §2, §3
8) Fu. mo.; Fusarium moniliforme

[7] = tested on: Rhizopus sp.; test: In vitro mycelial/spore growth on potato-sucrose-agar, percent disease control (RS, second column); settings: read-out: % controlled, RS; for inhibition of growth at 50 ppm: Rhizopus sp.; for inhibition of growth at 200 ppm: Rhizopus
Protocol: as §1, §2, §3
9) Rhi. sp.; Rhizopus sp.

[8] = tested on: Botritis cinerea; test: In vitro mycelial/spore growth on potato-sucrose-agar, percent disease control (BC); settings: read-out: % controlled, BC
Protocol: as §1, §2, §3
10) Bo. ci.; Botritis cinerea

| Structure (SMILES) | inhibition of growth at 50 ppm [1] [%] | inhibition of growth at 200 ppm [1] [%] | inhibition of growth at 50 ppm [2] [%] | inhibition of growth at 200 ppm [2] [%] | inhibition of growth at 50 ppm [3] [%] | inhibition of growth at 200 ppm [3] [%] | inhibition of growth at 50 ppm [4] [%] | inhibition of growth at 200 ppm [4] [%] | inhibition of growth at 50 ppm [5] [%] | inhibition of growth at 200 ppm [5] [%] | inhibition of growth at 50 ppm [6] [%] | inhibition of growth at 200 ppm [6] [%] | inhibition of growth at 50 ppm [7] [%] | inhibition of growth at 200 ppm [7] [%] | inhibition of growth at 50 ppm [8] [%] | inhibition of growth at 200 ppm [8] [%] |
| --- | --- | --- | --- | --- | --- | --- | --- | --- | --- | --- | --- | --- | --- | --- | --- | --- |
| CC(n1cncn1)[Si]1(c2ccc(F)cc2)CCCCC1 (stereo not drawn) [1-(4-fluorophenyl)-1-[α-(1H-1,2,4-triazole-1-yl)ethyl]-1-silacyclohexane] | 77 | 85 | 100 | 100 | 100 | 100 | 100 | 100 | 100 | 100 | 100 | 100 | 76 | 86 | 100 | 100 |
| CC(n1cncn1)[Si]1(c2ccc(F)cc2)CCCC1 (stereo not drawn) [1-(4-fluorophenyl)-1-[α-(1H-1,2,4-triazole-1-yl)ethyl]-1-silacyclopentane] | 45 | 100 | 100 | 100 | 100 | 100 | 100 | 100 | 100 | 100 | 94 | 100 | 59 | 75 | 100 | 100 |
| COc1ccc([Si]2(C(C)n3cncn3)CCCCC2)cc1 (stereo not drawn) [1-(4-methoxoyphenyl)-1-[α-(1H-1,2,4-triazole-1-yl)ethyl]-1-silacyclohexane] | 55 | 85 | 92 | 100 | 100 | 100 | 100 | 100 | 93 | 100 | 94 | 98 | 49 | 60 | 64 | 100 |
| COc1ccc([Si]2(Cn3cncn3)CCCCC2)cc1 [1-(4-methoxyphenyl)-1-(1H-1,2,4-triazole-1-yl)methyl-1-silacyclohexane] | 49 | 93 | 85 | 100 | 100 | 100 | 100 | 100 | 96 | 100 | 81 | 92 | 65 | 79 | 69 | 89 |
| COc1ccc([Si]2(Cn3cncn3)CCCC2)cc1 [1-(4-methoxyphenyl)-1-(1H-1,2,4-triazole-1-yl)methyl-1-silacyclopentane] | 41 | 100 | 75 | 79 | 100 | 100 | 100 | 100 | 74 | 100 | 70 | 80 | 64 | 75 | 72 | 77 |
| COc1ccc([Si]2(C(C)n3cncn3)CCCC2)cc1 (stereo not drawn) [1-(4-methoxyphenyl)-1-[α-(1H-1,2,4-triazole-1-yl)ethyl]-1-silacyclopentane] | 50 | 90 | 71 | 96 | 100 | 100 | 100 | 100 | 100 | 100 | 94 | 99 | 59 | 80 | 81 | 95 |
| FC(F)(F)c1ccc([Si]2(Cn3cncn3)CCCCC2)cc1 [1-(4-trifluoromethyl)-1-(1H-1,2,4-triazole-1-yl)methyl-1-silacyclohexane] | 75 | 99 | 100 | 100 | 100 | 100 | 100 | 100 | 54 | 80 | 82 | 98 | 63 | 76 | 93 | 100 |
| FC(F)(F)c1ccc([Si]2(Cn3cncn3)CCCC2)cc1 [1-(4-trifluoromethyl)-1-(1H-1,2,4-triazole-1-yl)methyl-1-silacyclopentane] | 70 | 79 | 96 | 100 | 100 | 100 | 100 | 100 | 95 | 99 | 79 | 100 | 69 | 72 | 96 | 100 |
| CC(n1cncn1)[Si]1(c2ccc(C(F)(F)F)cc2)CCCCC1 (stereo not drawn) [1-(4-trifluoromethyl)-1-[α-(1H-1,2,4-triazole-1-yl)ethyl]-1-silacyclohexane] | 39 | 78 | 100 | 100 | 100 | 100 | 100 | 100 | 99 | 100 | 58 | 99 | 47 | 56 | 66 | 99 |
| CC(n1cncn1)[Si]1(c2ccc(C(F)(F)F)cc2)CCCC1 (stereo not drawn) [1-(4-trifluoromethyl)-1-[α-(1H-1,2,4-triazole-1-yl)ethyl]-1-silacyclopentane] | 86 | 98 | 90 | 100 | 100 | 100 | 100 | 100 | 92 | 100 | 73 | 99 | 56 | 75 | 94 | 100 |
